Values quoted from earlier work as cited in article PMC6968775, “Assessment of contribution of BCRP to intestinal absorption of various drugs using portal‐systemic blood concentration difference model in mice” (Pharmacology Research & Perspectives, 2020).

Conditions: human; cited from earlier work

Compound: O=C(O)c1cn(C2CC2)c2cc(N3CCNCC3)c(F)cc2c1=O [ciprofloxacin, Ciprofloxacin]
- oral BA in human: about 70%
